# Source: publication PMC10388305, “Synthesis and Evaluation of a Monomethyl Auristatin E—Integrin αvβ6 Binding Peptide–Drug Conjugate for Tumor Targeted Drug Delivery” (Journal of Medicinal Chemistry, 2023)
# Test system: cells expressing the integrin αvβ6
# Experiment: Internalization assay
# Assay type: cell-based
# Settings: all cells expressing the integrin αvβ6; acidic wash pH 2.5; γ-counter
# Text: Binding to cells with minimal to no expression of integrin αvβ6 was low at 4.4 ± 0.1% to DX3puro cells and 7.9 ± 0.4% to pancreatic MIA PaCa-2 cells. Binding of [^64Cu]PDC-1 to DX3puroβ6 (+) and BxPC-3 (+) was reduced by adding increasing amounts of DOTA-PDC-1, illustrating that the αvβ6-selective uptake could be blocked (Figure S3). Internalization of [^64Cu]-PDC-1 into cells was high with >50% of the bound radioactivity internalized for all cells expressing the integrin αvβ6. In comparison, cell binding of [^64Cu]2 to DX3puroβ6 (+) cells was 58.8 ± 2.3, and 3.3 ± 0.4% to the DX3puro (−) cells.
# Cell binding and internalization assay. Binding and internalization were determined as previously described. […] The fraction of bound radioactivity was determined with a γ-counter (by measuring cell pellet and combined supernatants). To determine the fraction of internalized radioactivity, the cells were re-pelleted, and re-suspended in acidic wash buffer (0.2 M sodium acetate, 0.5 M sodium chloride, pH = 2.5, 300 μL, 4 °C, 5 min) to release surface bound activity, followed by a wash with PBS (300 μL). The internalized fraction was determined with a γ-counter (cell pellet vs. radioactivity released into supernatant). A Wizard 1470 or Wizard 2 2470 automatic γ-counter (Perkin-Elmer, Waltham, MA) was used to measure radioactivity samples. […]
smiles,measurement,value
"CC[C@H](C)[C@@H]([C@@H](CC(=O)N1CCC[C@H]1[C@H](OC)[C@@H](C)C(=O)N[C@H](C)[C@@H](O)c1ccccc1)OC)N(C)C(=O)[C@@H](NC(=O)[C@H](C(C)C)N(C)C(=O)OCc1ccc(NC(=O)[C@H](CCCNC(N)=O)NC(=O)[C@@H](NC(=O)CCOCCOCCNC(=O)CCN2C(=O)CC(SC[C@H](NC(=O)CN3CCN(CC(=O)O)CCN(CC(=O)O)CCN(CC(=O)O)CC3)C(=O)NCCOCCOCCOCCOCCOCCOCCOCCOCCOCCOCCOCCOCCOCCOCCOCCOCCOCCOCCOCCOCCOCCOCCOCCOCCOCCOCCOCCOCCC(=O)N[C@@H](CC(N)=O)C(=O)N[C@@H](C)C(=O)N[C@H](C(=O)N3CCC[C@H]3C(=O)N[C@@H](CC(N)=O)C(=O)N[C@@H](CC(C)C)C(=O)N[C@@H](CCCNC(=N)N)C(=O)NCC(=O)N[C@@H](CC(=O)O)C(=O)N[C@@H](CC(C)C)C(=O)N[C@@H](CCC(N)=O)C(=O)N[C@H](C(=O)N[C@@H](CC(C)C)C(=O)N[C@@H](C)C(=O)N[C@@H](CCC(N)=O)C(=O)N[C@@H](CCCNC(=N)N)C(=O)N[C@H](C(=O)N[C@@H](C)C(=O)N[C@@H](CCCNC(=N)N)C(=O)N[C@H](C(=O)NCCOCCOCCOCCOCCOCCOCCOCCOCCOCCOCCOCCOCCOCCOCCOCCOCCOCCOCCOCCOCCOCCOCCOCCOCCOCCOCCOCCOCCC(N)=O)[C@@H](C)O)C(C)C)C(C)C)C(C)C)C2=O)C(C)C)cc1)C(C)C (stereo partly shown) [[^64Cu]PDC-1, metal not drawn]","Internalization, fraction of the bound radioactivity internalized",> 50%
